Assay results reported in patent publication US20090118332A1, “Therapeutic Agents - 551” (AstraZeneca AB, priority 2006, published 2009).

Molecular target: T1, human Fatty Acid Synthase (Homo sapiens, UniProt P49327)
T1 construct: made in house
Assay: Human FAS enzyme assay (decrease in NADPH fluorescence)
Assay type: biochemical
Conditions: for inhibition at 100 µM: % inhibition at a concentration of 100 μmolar; for IC50, inhibition of human Fatty Acid Synthase: FAS enzyme assay, IC50 from fitted sigmoid curves
Summary of the method: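 In-house human FAS was preincubated with compound and NADPH for 15 min at room temperature in 0.1 M Tris pH 7.5 with EDTA, glutathione and BSA. Malonyl CoA and acetyl CoA (500 μM and 150 μM in the added mix) were then added for 60 min. IC50 came from time-zero-subtracted NADPH fluorescence (340/460 nm).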

T1 sequence (P49327 whole entry): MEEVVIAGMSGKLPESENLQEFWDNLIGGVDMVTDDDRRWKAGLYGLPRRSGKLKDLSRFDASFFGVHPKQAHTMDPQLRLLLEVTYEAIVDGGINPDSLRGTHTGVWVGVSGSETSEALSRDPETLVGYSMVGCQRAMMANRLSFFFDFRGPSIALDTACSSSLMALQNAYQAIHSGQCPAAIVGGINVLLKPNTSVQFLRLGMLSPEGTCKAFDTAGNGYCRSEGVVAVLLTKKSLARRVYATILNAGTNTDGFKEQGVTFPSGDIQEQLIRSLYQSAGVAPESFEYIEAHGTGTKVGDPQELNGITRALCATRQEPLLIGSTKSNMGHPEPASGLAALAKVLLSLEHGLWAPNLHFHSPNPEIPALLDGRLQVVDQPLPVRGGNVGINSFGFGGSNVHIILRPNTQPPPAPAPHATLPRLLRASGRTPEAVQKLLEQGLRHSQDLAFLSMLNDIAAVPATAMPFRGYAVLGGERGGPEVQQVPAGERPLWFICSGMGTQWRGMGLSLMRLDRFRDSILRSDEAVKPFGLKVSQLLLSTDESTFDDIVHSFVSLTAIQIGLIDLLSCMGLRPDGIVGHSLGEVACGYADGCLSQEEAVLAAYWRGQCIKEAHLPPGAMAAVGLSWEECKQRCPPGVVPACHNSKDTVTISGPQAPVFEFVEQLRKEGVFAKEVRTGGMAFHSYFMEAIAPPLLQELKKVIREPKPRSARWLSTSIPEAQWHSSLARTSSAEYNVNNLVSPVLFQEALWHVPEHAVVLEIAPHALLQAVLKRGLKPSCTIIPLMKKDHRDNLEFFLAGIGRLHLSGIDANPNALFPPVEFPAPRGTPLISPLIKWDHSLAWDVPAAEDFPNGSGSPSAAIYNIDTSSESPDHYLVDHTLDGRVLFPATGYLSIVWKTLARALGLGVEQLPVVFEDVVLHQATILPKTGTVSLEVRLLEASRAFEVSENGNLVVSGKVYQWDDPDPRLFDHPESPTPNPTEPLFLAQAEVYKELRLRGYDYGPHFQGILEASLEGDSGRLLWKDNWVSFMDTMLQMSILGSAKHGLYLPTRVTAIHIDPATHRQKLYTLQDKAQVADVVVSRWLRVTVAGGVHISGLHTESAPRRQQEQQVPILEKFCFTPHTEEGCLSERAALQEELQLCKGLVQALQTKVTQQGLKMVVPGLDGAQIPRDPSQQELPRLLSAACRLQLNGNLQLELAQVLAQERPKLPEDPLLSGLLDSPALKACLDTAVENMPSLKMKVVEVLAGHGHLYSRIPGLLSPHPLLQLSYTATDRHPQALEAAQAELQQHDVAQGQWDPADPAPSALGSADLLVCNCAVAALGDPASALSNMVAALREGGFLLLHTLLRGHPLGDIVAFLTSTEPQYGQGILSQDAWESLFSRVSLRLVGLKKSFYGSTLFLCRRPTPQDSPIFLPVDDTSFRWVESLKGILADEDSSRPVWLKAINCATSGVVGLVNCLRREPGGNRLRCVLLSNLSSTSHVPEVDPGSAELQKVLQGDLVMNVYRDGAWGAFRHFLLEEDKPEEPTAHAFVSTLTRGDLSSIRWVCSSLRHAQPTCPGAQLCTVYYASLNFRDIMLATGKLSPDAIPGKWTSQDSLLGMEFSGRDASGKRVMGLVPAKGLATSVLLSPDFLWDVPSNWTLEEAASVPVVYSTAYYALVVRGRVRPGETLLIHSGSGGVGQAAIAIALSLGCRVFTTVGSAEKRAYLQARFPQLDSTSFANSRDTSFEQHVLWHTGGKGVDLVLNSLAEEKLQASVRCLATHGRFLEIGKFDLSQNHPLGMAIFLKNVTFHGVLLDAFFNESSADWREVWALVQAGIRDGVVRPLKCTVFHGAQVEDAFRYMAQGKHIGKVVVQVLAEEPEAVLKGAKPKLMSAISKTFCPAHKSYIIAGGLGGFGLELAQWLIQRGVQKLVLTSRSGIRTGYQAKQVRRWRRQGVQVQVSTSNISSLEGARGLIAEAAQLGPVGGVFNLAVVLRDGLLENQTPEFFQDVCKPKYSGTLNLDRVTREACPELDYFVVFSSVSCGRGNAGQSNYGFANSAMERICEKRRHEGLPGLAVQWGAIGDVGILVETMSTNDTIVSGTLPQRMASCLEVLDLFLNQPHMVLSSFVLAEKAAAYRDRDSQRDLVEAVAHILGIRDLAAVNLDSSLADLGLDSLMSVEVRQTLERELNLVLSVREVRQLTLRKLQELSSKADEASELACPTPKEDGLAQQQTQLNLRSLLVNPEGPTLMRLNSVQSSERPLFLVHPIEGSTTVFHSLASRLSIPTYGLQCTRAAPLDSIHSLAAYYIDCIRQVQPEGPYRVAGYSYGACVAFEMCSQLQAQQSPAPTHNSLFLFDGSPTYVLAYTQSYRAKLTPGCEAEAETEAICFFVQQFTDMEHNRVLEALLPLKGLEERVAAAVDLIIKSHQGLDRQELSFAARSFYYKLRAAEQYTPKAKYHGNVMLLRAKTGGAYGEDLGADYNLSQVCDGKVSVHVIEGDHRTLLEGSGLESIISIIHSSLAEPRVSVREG

Structure (SMILES) | inhibition at 100 µM | IC50, inhibition of human Fatty Acid Synthase
Cc1ccc(C(=O)N2CCC(c3ccc(C#N)cc3)CC2)cc1NC(=O)NC1CCC(C(=O)O)CC1 (stereo not shown) [Example 406, 4-[[5-[4-(4-cyanophenyl)piperidine-1-carbonyl]-2-methylphenyl]carbamoylamino]cyclohexane-1-carboxylic acid] | 93.4% | –
Cc1ccc(C(=O)N2CCC(c3ccc(C#N)cc3)CC2)cc1NC(=O)NCCCC(=O)O [Example 407, 4-[[5-[4-(4-cyanophenyl)piperidine-1-carbonyl]-2-methylphenyl]carbamoylamino]butanoic acid] | 104% | –
Cc1ccc(C(=O)N2CCC(c3ccc(C#N)cc3)CC2)cc1NC(=O)NCC(=O)O [Example 408, 2-[[5-[4-(4-cyanophenyl)piperidine-1-carbonyl]-2-methylphenyl]carbamoylamino]acetic acid] | 95.7% | –
Cc1cc(C)c(C(=O)N2CCC(c3ccc(C#N)cc3)CC2)cc1NC(=O)NCc1ccccn1 [Example 409, 1-[5-[4-(4-cyanophenyl)piperidine-1-carbonyl]-2,4-dimethylphenyl]-3-(pyridin-2-ylmethyl)urea] | 96.9% | –
CCNC(=O)Nc1cc(C(=O)N2CCC(c3ccc(C#N)cc3)CC2)c(C)cc1C [Example 410, 3-[5-[4-(4-cyanophenyl)piperidine-1-carbonyl]-2,4-dimethylphenyl]-1-ethylurea] | 93.7% | –
Cc1cc(C)c(C(=O)N2CCC(c3ccc(C#N)cc3)CC2)cc1NC(=O)NC1CC1 [Example 411, 1-[5-[4-(4-cyanophenyl)piperidine-1-carbonyl]-2,4-dimethylphenyl]-3-cyclopropylurea] | 90% | –
COCCNC(=O)Nc1cc(C(=O)N2CCC(c3ccc(C#N)cc3)CC2)c(C)cc1C [Example 412, 1-[5-[4-(4-cyanophenyl)piperidine-1-carbonyl]-2,4-dimethylphenyl]-3-(2-methoxyethyl)urea] | 89.9% | –
C#CCNC(=O)Nc1cc(C(=O)N2CCC(c3ccc(C#N)cc3)CC2)c(C)cc1C [Example 413, 1-[5-[4-(4-cyanophenyl)piperidine-1-carbonyl]-2,4-dimethylphenyl]-3-prop-2-ynylurea] | 101% | –
Cc1ccc(NC(=O)NCc2ccccn2)cc1C(=O)N1CCC(c2ccc(C#N)cc2)CC1 [Example 414, 1-[3-[4-(4-cyanophenyl)piperidine-1-carbonyl]-4-methylphenyl]-3-(pyridin-2-ylmethyl)urea] | 83.6% | –
Cc1ccc(NC(=O)NC2CC2)cc1C(=O)N1CCC(c2ccc(C#N)cc2)CC1 [Example 415, 1-[3-[4-(4-cyanophenyl)piperidine-1-carbonyl]-4-methylphenyl]-3-cyclopropylurea] | 78.2% | –
CCOCCCNC(=O)Nc1ccc(C)c(C(=O)N2CCC(c3ccc(C#N)cc3)CC2)c1 [Example 416, 3-[3-[4-(4-cyanophenyl)piperidine-1-carbonyl]-4-methylphenyl]-1-(3-ethoxypropyl)urea] | 90.8% | –
COCCNC(=O)Nc1ccc(C)c(C(=O)N2CCC(c3ccc(C#N)cc3)CC2)c1 [Example 417, 1-[3-[4-(4-cyanophenyl)piperidine-1-carbonyl]-4-methylphenyl]-3-(2-methoxyethyl)urea] | 85.1% | –
C#CCNC(=O)Nc1ccc(C)c(C(=O)N2CCC(c3ccc(C#N)cc3)CC2)c1 [Example 418, 1-[3-[4-(4-cyanophenyl)piperidine-1-carbonyl]-4-methylphenyl]-3-prop-2-ynylurea] | 67.3% | –
COC(=O)C(C)(C)NC(=O)Nc1cc(C(=O)N2CCC(c3ccc(C#N)cc3)CC2)ccc1C [Methyl 2-[[5-[4-(4-cyanophenyl)piperidine-1-carbonyl]-2-methylphenyl]carbamoylamino]-2-methylpropanoate] | – | do not have IC50s in the range of about 0.001 μM to about 30 μM
COC(=O)C(Cc1ccc(F)cc1)NC(=O)Nc1cc(C(=O)N2CCC(c3ccc(C#N)cc3)CC2)ccc1C (stereo not shown) [Methyl 2-[[5-[4-(4-cyanophenyl)piperidine-1-carbonyl]-2-methylphenyl]carbamoylamino]-3-(4-fluorophenyl)propanoate] | – | do not have IC50s in the range of about 0.001 μM to about 30 μM
COC(=O)C(CCn1cnnn1)NC(=O)Nc1cc(C(=O)N2CCC(c3ccc(C#N)cc3)CC2)ccc1C (stereo not shown) [Methyl 2-[[5-[4-(4-cyanophenyl)piperidine-1-carbonyl]-2-methylphenyl]carbamoylamino]-4-(tetrazol-1-yl)butanoate] | – | do not have IC50s in the range of about 0.001 μM to about 30 μM
COC(=O)[C@@H](NC(=O)Nc1cc(C(=O)N2CCC(c3ccc(C#N)cc3)CC2)ccc1C)c1ccccc1 [Methyl (2S)-2-[[5-[4-(4-cyanophenyl)piperidine-1-carbonyl]-2-methylphenyl]carbamoylamino]-2-phenylacetate] | – | do not have IC50s in the range of about 0.001 μM to about 30 μM
COC(=O)[C@H](Cc1cn(C)cn1)NC(=O)Nc1cc(C(=O)N2CCC(c3ccc(C#N)cc3)CC2)ccc1C [Methyl (2S)-2-[[5-[4-(4-cyanophenyl)piperidine-1-carbonyl]-2-methylphenyl]carbamoylamino]-3-(1-methylimidazol-4-yl)propanoate] | – | do not have IC50s in the range of about 0.001 μM to about 30 μM
COC(=O)[C@@H](NC(=O)Nc1cc(C(=O)N2CCC(c3ccc(C#N)cc3)CC2)ccc1C)C(C)C [Methyl (2S)-2-[[5-[4-(4-cyanophenyl)piperidine-1-carbonyl]-2-methylphenyl]carbamoylamino]-3-methylbutanoate] | – | do not have IC50s in the range of about 0.001 μM to about 30 μM
COC(=O)[C@H](CCc1nnn[nH]1)NC(=O)Nc1cc(C(=O)N2CCC(c3ccc(C#N)cc3)CC2)ccc1C [Methyl (2S)-2-[[5-[4-(4-cyanophenyl)piperidine-1-carbonyl]-2-methylphenyl]carbamoylamino]-4-(1H-tetrazol-5-yl)butanoate] | – | do not have IC50s in the range of about 0.001 μM to about 30 μM
Cc1ccc(C(=O)N2CCC(c3ccc(C#N)cc3)CC2)cc1NC(=O)N(C)CCNC(=O)C(C)C [N-[2-[[5-[4-(4-cyanophenyl)piperidine-1-carbonyl]-2-methylphenyl]carbamoyl-methylamino]ethyl]-2-methylpropanamide] | – | do not have IC50s in the range of about 0.001 μM to about 30 μM
Cc1ccc(C(=O)N2CCC(c3ccc(C#N)cc3)CC2)cc1NC(=O)N1CCS(=O)(=O)CC1 [N-[5-[4-(4-cyanophenyl)piperidine-1-carbonyl]-2-methylphenyl]-1,1-dioxo-1,4-thiazinane-4-carboxamide] | – | do not have IC50s in the range of about 0.001 μM to about 30 μM
